Laboratory results published in ChEMBL document CHEMBL6109078, “Pyrylium derivatives as outer membrane permeabilizers against MDR gram-negative bacteria via multi-target mode of action” (Eur J Med Chem, 2025).
Calls of active or inactive are those of the source. The calls are words filed in the database; no cut-off is given here.

How the values were obtained:
Escherichia coli [1] = assay: Synergistic antibacterial activity against multi-drug resistant Escherichia coli clinical isolate 1 assessed as inhibition of bacterial growth in presence of polymyxin B by checkerboard assay; format: functional
Acinetobacter baumannii [2] = assay: Antibacterial activity against multi-drug resistant Acinetobacter baumannii clinical isolate 51 assessed as inhibition of bacterial growth by CLSI protocol based method; format: functional
Acinetobacter baumannii [3] = assay: Synergistic antibacterial activity against multi-drug resistant Acinetobacter baumannii clinical isolate 5 assessed as fractional inhibitory concentration index in presence of polymyxin B by checkerboard assay; format: functional
Acinetobacter baumannii [4] = assay: Synergistic antibacterial activity against multi-drug resistant Acinetobacter baumannii clinical isolate 14 assessed as inhibition of bacterial growth by measuring polymyxin B MIC by checkerboard assay; format: functional
Escherichia coli [5] = assay: Synergistic antibacterial activity against multi-drug resistant Escherichia coli clinical isolate 1 assessed as fractional inhibitory concentration index in presence of amikacin by checkerboard assay; format: functional
Acinetobacter baumannii [6] = assay: Synergistic antibacterial activity against multi-drug resistant Acinetobacter baumannii clinical isolate 1 assessed as fractional inhibitory concentration index in presence of polymyxin B by checkerboard assay; format: functional
Escherichia coli [7] = assay: Antibacterial activity against multi-drug resistant Escherichia coli clinical isolate 1 assessed as inhibition of bacterial growth by CLSI protocol based method; format: functional
Escherichia coli [8] = assay: Antibacterial activity against Escherichia coli ATCC 25922 assessed as inhibition of bacterial growth by measuring decrease in bacterial count at 6.25 to 50 microg/ml measured after 12 hrs by time-kill kinetics analysis; format: functional; conditions: dose 6.25-50 µg/ml
Acinetobacter baumannii [9] = assay: Synergistic antibacterial activity against multi-drug resistant Acinetobacter baumannii clinical isolate 1 assessed as fractional inhibitory concentration index in presence of amikacin by checkerboard assay; format: functional
Acinetobacter baumannii [10] = assay: Synergistic antibacterial activity against Acinetobacter baumannii ATCC 19606 assessed as fractional inhibitory concentration index in presence of polymyxin B by checkerboard assay; format: functional
Acinetobacter baumannii [11] = assay: Synergistic antibacterial activity against multi-drug resistant Acinetobacter baumannii clinical isolate 5 assessed as inhibition of bacterial growth in presence of polymyxin B by checkerboard assay; format: functional
Pseudomonas aeruginosa [12] = assay: Antibacterial activity Pseudomonas aeruginosa PAO1 assessed as inhibition of bacterial growth by CLSI protocol based method; format: functional
Escherichia coli [13] = assay: Synergistic antibacterial activity against Escherichia coli ATCC 25922 assessed as fractional inhibitory concentration index in presence of gentamycin by checkerboard assay; format: functional
Escherichia coli [14] = assay: Synergistic antibacterial activity against Escherichia coli ATCC 25922 assessed as inhibition of bacterial growth in presence of polymyxin B by checkerboard assay; format: functional
Escherichia coli [15] = assay: Synergistic antibacterial activity against Escherichia coli ATCC 25922 assessed as inhibition of bacterial growth by measuring polymyxin B MIC by checkerboard assay; format: functional
Escherichia coli [16] = assay: Synergistic antibacterial activity against multi-drug resistant Escherichia coli clinical isolate 1 assessed as inhibition of bacterial growth by measuring polymyxin B MIC by checkerboard assay; format: functional
Acinetobacter baumannii [17] = assay: Antibacterial activity against multi-drug resistant Acinetobacter baumannii clinical isolate 4 assessed as inhibition of bacterial growth by CLSI protocol based method; format: functional
Acinetobacter baumannii [18] = assay: Antibacterial activity against multi-drug resistant Acinetobacter baumannii clinical isolate 1 assessed as inhibition of bacterial growth by CLSI protocol based method; format: functional
Acinetobacter baumannii [19] = assay: Synergistic antibacterial activity against multi-drug resistant Acinetobacter baumannii clinical isolate 14 assessed as inhibition of bacterial growth in presence of polymyxin B by checkerboard assay; format: functional
Acinetobacter baumannii [20] = assay: Synergistic antibacterial activity against multi-drug resistant Acinetobacter baumannii clinical isolate 43 assessed as fractional inhibitory concentration index in presence of amikacin by checkerboard assay; format: functional
Pseudomonas aeruginosa [21] = assay: Synergistic antibacterial activity against Pseudomonas aeruginosa assessed as inhibition of bacterial growth in presence of aminoglycoside by checkerboard assay; format: functional, organism-based
Acinetobacter baumannii [22] = assay: Synergistic antibacterial activity against multi-drug resistant Acinetobacter baumannii clinical isolate 5 assessed as fractional inhibitory concentration index in presence of gentamycin by checkerboard assay; format: functional
Escherichia coli [23] = assay: Synergistic antibacterial activity against multi-drug resistant Escherichia coli clinical isolate 1 assessed as fractional inhibitory concentration index in presence of gentamycin by checkerboard assay; format: functional
Escherichia coli [24] = assay: Synergistic antibacterial activity against Escherichia coli ATCC 35218 assessed as fractional inhibitory concentration index in presence of amikacin by checkerboard assay; format: functional
Acinetobacter baumannii [25] = assay: Synergistic antibacterial activity against multi-drug resistant Acinetobacter baumannii clinical isolate 43 assessed as fractional inhibitory concentration index in presence of polymyxin B by checkerboard assay; format: functional
Acinetobacter baumannii [26] = assay: Synergistic antibacterial activity against multi-drug resistant Acinetobacter baumannii clinical isolate 43 assessed as inhibition of bacterial growth in presence of polymyxin B by checkerboard assay; format: functional
Acinetobacter baumannii [27] = assay: Synergistic antibacterial activity against multi-drug resistant Acinetobacter baumannii clinical isolate 5 assessed as inhibition of bacterial growth by measuring polymyxin B MIC by checkerboard assay; format: functional
Klebsiella pneumoniae [28] = assay: Synergistic antibacterial activity against Klebsiella pneumoniae assessed as inhibition of bacterial growth in presence of polymyxin B by checkerboard assay; format: functional, organism-based
Escherichia coli [29] = assay: Synergistic antibacterial activity against Escherichia coli CG-4 expressing MCR-1 and NDM-1 assessed as fractional inhibitory concentration index in presence of […] by checkerboard assay; format: functional
Acinetobacter baumannii [30] = assay: Antibacterial activity against multi-drug resistant Acinetobacter baumannii clinical isolate 43 assessed as inhibition of bacterial growth by CLSI protocol based method; format: functional
Acinetobacter baumannii [31] = assay: Antibacterial activity against Acinetobacter baumannii ATCC 19606 assessed as inhibition of bacterial growth by CLSI protocol based method; format: functional
Acinetobacter baumannii [32] = assay: Synergistic antibacterial activity against multi-drug resistant Acinetobacter baumannii clinical isolate 5 assessed as fractional inhibitory concentration index in presence of amikacin by checkerboard assay; format: functional
Acinetobacter baumannii [33] = assay: Antibacterial activity against multi-drug resistant Acinetobacter baumannii clinical isolate 14 assessed as inhibition of bacterial growth by CLSI protocol based method; format: functional
Klebsiella pneumoniae [34] = assay: Antibacterial activity against Klebsiella pneumoniae BAA ATCC 1706 assessed as inhibition of bacterial growth by CLSI protocol based method; format: functional
Escherichia coli [35] = assay: Synergistic antibacterial activity against multi-drug resistant Escherichia coli clinical isolate 1 assessed as fractional inhibitory concentration index in presence of polymyxin B by checkerboard assay; format: functional
Escherichia coli [36] = assay: Synergistic antibacterial activity against Escherichia coli CG-4 expressing MCR-1 and NDM-1 assessed as fractional inhibitory concentration index in presence of gentamycin by checkerboard assay; format: functional
Escherichia coli [37] = assay: Synergistic antibacterial activity against Escherichia coli ATCC 25922 assessed as fractional inhibitory concentration index in presence of polymyxin B by checkerboard assay; format: functional
Pseudomonas aeruginosa [38] = assay: Synergistic antibacterial activity against Pseudomonas aeruginosa assessed as inhibition of bacterial growth in presence of polymyxin B by checkerboard assay; format: functional, organism-based
Acinetobacter baumannii [39] = assay: Synergistic antibacterial activity against multi-drug resistant Acinetobacter baumannii clinical isolate 14 assessed as fractional inhibitory concentration index in presence of amikacin by checkerboard assay; format: functional
Escherichia coli [40] = assay: Synergistic antibacterial activity against Escherichia coli ATCC 35218 assessed as fractional inhibitory concentration index in presence of gentamycin by checkerboard assay; format: functional
Escherichia coli [41] = assay: Synergistic antibacterial activity against Escherichia coli ATCC 25922 assessed as fractional inhibitory concentration index in presence of amikacin by checkerboard assay; format: functional
Acinetobacter baumannii [42] = assay: Antibacterial activity against multi-drug resistant Acinetobacter baumannii clinical isolate 2 assessed as inhibition of bacterial growth by CLSI protocol based method; format: functional

`CC(C)(C)c1cc(/C=C/c2ccc(N3CCCC3)cc2)cc(C(C)(C)C)[o+]1.O=S(=O)([O-])C(F)(F)F` was tested, and the MIC (Escherichia coli [1]) was 6.25 µg/mL, the MIC (Acinetobacter baumannii [2]) was 12.5 µg/mL and the “fractional inhibitory concentration index (FICI)” value (Acinetobacter baumannii [3]) was 0.313. The MIC (Acinetobacter baumannii [4]) was 0.024 µg/mL, the “fractional inhibitory concentration index (FICI)” value (Escherichia coli [5]) was 0.125 and the “fractional inhibitory concentration index (FICI)” value (Acinetobacter baumannii [6]) was under 0.266. The MIC (Escherichia coli [7]) was at least 100 µg/mL, the Activity (Escherichia coli [8]) was under 6 log10CFU/ml and the “fractional inhibitory concentration index (FICI)” value (Acinetobacter baumannii [9]) was 0.125. The “fractional inhibitory concentration index (FICI)” value (Acinetobacter baumannii [10]) was 0.156, the MIC (Acinetobacter baumannii [11]) was 1.56 µg/mL and the MIC (Pseudomonas aeruginosa [12]) was over 100 µg/mL. For the same molecule, the “fractional inhibitory concentration index (FICI)” value (Escherichia coli [13]) was 0.125, the MIC (Escherichia coli [14]) was 1.56 µg/mL and the MIC (Escherichia coli [15]) was 31.25 10^-4 ug/ml. The MIC (Escherichia coli [16]) was 0.39 µg/mL, the MIC (Acinetobacter baumannii [17]) was 12.5 µg/mL and the MIC (Acinetobacter baumannii [18]) was 12.5 µg/mL. The MIC (Acinetobacter baumannii [19]) was 1.56 µg/mL, the “fractional inhibitory concentration index (FICI)” value (Acinetobacter baumannii [20]) was 0.125 and the Activity (Pseudomonas aeruginosa [21]) was “inactive”. The “fractional inhibitory concentration index (FICI)” value (Acinetobacter baumannii [22]) was 0.125, the “fractional inhibitory concentration index (FICI)” value (Escherichia coli [23]) was 0.125 and the “fractional inhibitory concentration index (FICI)” value (Escherichia coli [24]) was 0.125. For the same molecule, the “fractional inhibitory concentration index (FICI)” value (Acinetobacter baumannii [25]) was 0.5, the MIC (Acinetobacter baumannii [26]) was 6.25 µg/mL and the MIC (Acinetobacter baumannii [27]) was 0.003 µg/mL. The Activity (Klebsiella pneumoniae [28]) was “inactive”, the “fractional inhibitory concentration index (FICI)” value (Escherichia coli [29]) was 0.125 and the MIC (Acinetobacter baumannii [30]) was 12.5 µg/mL. For the same molecule, the MIC (Acinetobacter baumannii [31]) was 12.5 µg/mL, the “fractional inhibitory concentration index (FICI)” value (Acinetobacter baumannii [32]) was 0.125 and the MIC (Acinetobacter baumannii [33]) was 6.25 µg/mL. The MIC (Klebsiella pneumoniae [34]) was over 100 µg/mL, the “fractional inhibitory concentration index (FICI)” value (Escherichia coli [35]) was 0.063 and the “fractional inhibitory concentration index (FICI)” value (Escherichia coli [36]) was 0.125. For the same molecule, the “fractional inhibitory concentration index (FICI)” value (Escherichia coli [37]) was 0.156, the Activity (Pseudomonas aeruginosa [38]) was “inactive” and the “fractional inhibitory concentration index (FICI)” value (Acinetobacter baumannii [39]) was 0.125. For the same molecule, the “fractional inhibitory concentration index (FICI)” value (Escherichia coli [40]) was 0.125, the “fractional inhibitory concentration index (FICI)” value (Escherichia coli [41]) was 0.125 and the MIC (Acinetobacter baumannii [42]) was 6.25 µg/mL.
`CN1CCOc2cc(/C=C/c3cc(C(C)(C)C)[o+]c(C(C)(C)C)c3)ccc21.O=S(=O)([O-])C(F)(F)F` was tested, and the MIC (Escherichia coli [1]) was 12.5 µg/mL, the MIC (Acinetobacter baumannii [2]) was 50 µg/mL and the “fractional inhibitory concentration index (FICI)” value (Acinetobacter baumannii [3]) was 0.25. For the same molecule, the MIC (Acinetobacter baumannii [4]) was 0.012 µg/mL, the “fractional inhibitory concentration index (FICI)” value (Escherichia coli [5]) was 0.125 and the “fractional inhibitory concentration index (FICI)” value (Acinetobacter baumannii [6]) was under 0.126. For the same molecule, the MIC (Escherichia coli [7]) was at least 100 µg/mL, the Activity (Escherichia coli [8]) was under 6 log10CFU/ml and the “fractional inhibitory concentration index (FICI)” value (Acinetobacter baumannii [9]) was 0.125. The “fractional inhibitory concentration index (FICI)” value (Acinetobacter baumannii [10]) was 0.25, the MIC (Acinetobacter baumannii [11]) was 6.25 µg/mL and the MIC (Pseudomonas aeruginosa [12]) was over 100 µg/mL. For the same molecule, the “fractional inhibitory concentration index (FICI)” value (Escherichia coli [13]) was 0.125, the MIC (Escherichia coli [14]) was 12.5 µg/mL and the MIC (Escherichia coli [15]) was 7.8 10^-4 ug/ml. The MIC (Escherichia coli [16]) was 0.2 µg/mL, the MIC (Acinetobacter baumannii [17]) was 100 µg/mL and the MIC (Acinetobacter baumannii [18]) was 100 µg/mL. For the same molecule, the MIC (Acinetobacter baumannii [19]) was 12.5 µg/mL, the “fractional inhibitory concentration index (FICI)” value (Acinetobacter baumannii [20]) was 0.125 and the Activity (Pseudomonas aeruginosa [21]) was “inactive”. The “fractional inhibitory concentration index (FICI)” value (Acinetobacter baumannii [22]) was 0.125, the “fractional inhibitory concentration index (FICI)” value (Escherichia coli [23]) was 0.125 and the “fractional inhibitory concentration index (FICI)” value (Escherichia coli [24]) was 0.125. For the same molecule, the “fractional inhibitory concentration index (FICI)” value (Acinetobacter baumannii [25]) was under 0.25, the MIC (Acinetobacter baumannii [26]) was 25 µg/mL and the MIC (Acinetobacter baumannii [27]) was 0.006 µg/mL. For the same molecule, the Activity (Klebsiella pneumoniae [28]) was “inactive”, the “fractional inhibitory concentration index (FICI)” value (Escherichia coli [29]) was 0.125 and the MIC (Acinetobacter baumannii [30]) was 100 µg/mL. For the same molecule, the MIC (Acinetobacter baumannii [31]) was 50 µg/mL, the “fractional inhibitory concentration index (FICI)” value (Acinetobacter baumannii [32]) was 0.125 and the MIC (Acinetobacter baumannii [33]) was 100 µg/mL. The MIC (Klebsiella pneumoniae [34]) was over 100 µg/mL, the “fractional inhibitory concentration index (FICI)” value (Escherichia coli [35]) was 0.047 and the “fractional inhibitory concentration index (FICI)” value (Escherichia coli [36]) was 0.125. For the same molecule, the “fractional inhibitory concentration index (FICI)” value (Escherichia coli [37]) was 0.266, the Activity (Pseudomonas aeruginosa [38]) was “inactive” and the “fractional inhibitory concentration index (FICI)” value (Acinetobacter baumannii [39]) was 0.125. For the same molecule, the “fractional inhibitory concentration index (FICI)” value (Escherichia coli [40]) was 0.125, the “fractional inhibitory concentration index (FICI)” value (Escherichia coli [41]) was 0.125 and the MIC (Acinetobacter baumannii [42]) was 100 µg/mL.
